Test results from US20220153745A1, “DISUBSTITUTED BENZOTHIENYL-PYRROLOTRIAZINES AND THEIR USE AS FGFR KINASE INHIBITORS” (Bayer Intellectual Property GmbH, priority 2011, published 2022).
Counter-ions that a name gives are not always drawn.

Biological target: T1, mTOR (Homo sapiens, UniProt P42345)
T1 construct: human mTOR amino acids from 1360 to 2549; purchased Invitrogen 4753; host or cells: insect cells
Experiment: mTOR kinase assay (TR-FRET, for comparative purposes)
Assay type: biochemical
Conditions: for inhibition at 1 µM: read-out: mTOR % inhibition @ 1 μM, mean inhibition at 1 μM test compound, 40 μM ATP

T1 sequence (P42345 1360-2549): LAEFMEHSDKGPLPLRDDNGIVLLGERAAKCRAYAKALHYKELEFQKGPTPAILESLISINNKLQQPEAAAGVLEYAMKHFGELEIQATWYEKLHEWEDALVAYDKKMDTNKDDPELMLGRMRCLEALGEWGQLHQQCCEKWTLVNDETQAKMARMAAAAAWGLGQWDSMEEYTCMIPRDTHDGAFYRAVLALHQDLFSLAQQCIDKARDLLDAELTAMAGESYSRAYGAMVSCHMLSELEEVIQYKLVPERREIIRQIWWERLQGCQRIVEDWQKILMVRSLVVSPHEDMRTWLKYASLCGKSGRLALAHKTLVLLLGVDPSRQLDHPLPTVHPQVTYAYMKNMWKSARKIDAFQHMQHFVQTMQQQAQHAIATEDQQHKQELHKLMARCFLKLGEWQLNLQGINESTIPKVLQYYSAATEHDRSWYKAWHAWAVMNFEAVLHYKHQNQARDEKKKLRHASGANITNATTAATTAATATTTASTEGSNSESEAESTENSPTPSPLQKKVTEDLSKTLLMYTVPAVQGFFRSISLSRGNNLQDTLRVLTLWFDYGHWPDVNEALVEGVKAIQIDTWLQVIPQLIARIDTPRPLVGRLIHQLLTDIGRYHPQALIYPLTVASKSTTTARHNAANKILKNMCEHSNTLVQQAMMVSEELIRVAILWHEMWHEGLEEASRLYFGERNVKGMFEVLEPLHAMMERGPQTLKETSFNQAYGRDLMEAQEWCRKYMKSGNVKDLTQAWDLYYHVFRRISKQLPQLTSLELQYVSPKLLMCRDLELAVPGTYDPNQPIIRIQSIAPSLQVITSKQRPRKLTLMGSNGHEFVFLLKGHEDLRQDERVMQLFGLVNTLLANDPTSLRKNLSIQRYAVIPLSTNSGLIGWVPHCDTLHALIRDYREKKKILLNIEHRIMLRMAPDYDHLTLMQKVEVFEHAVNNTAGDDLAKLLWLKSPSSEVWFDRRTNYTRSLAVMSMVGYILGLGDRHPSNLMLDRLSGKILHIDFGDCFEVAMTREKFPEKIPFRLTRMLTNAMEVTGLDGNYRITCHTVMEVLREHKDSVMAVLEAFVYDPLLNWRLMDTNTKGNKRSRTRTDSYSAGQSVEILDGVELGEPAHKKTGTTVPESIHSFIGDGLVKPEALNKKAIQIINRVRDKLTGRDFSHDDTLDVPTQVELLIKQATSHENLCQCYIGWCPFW

SMILES	inhibition at 1 µM	mTOR % inhibition @ 1 μM (mean inhibition at 1 μM test compound, 40 μM ATP)
COc1cc(C)cc2cc(-c3c(CN4CCCC(O)C4)c(CN4CCNCC4)n4ncnc(N)c34)sc12 (racemic) [Example 40, rac-1-{[4-Amino-5-(7-methoxy-5-methyl-1-benzothiophen-2-yl)-7-(piperazin-1-ylmethyl)pyrrolo[2,1-f][1,2,4]triazin-6-yl]methyl}piperidin-3-ol trihydrochloride]	0.1%	
COCc1c(-c2cc3cc(C)cc(OC)c3s2)c2c(N)ncnn2c1CN1CCNC(=O)C1 [Example 1, 4-{[4-Amino-6-(methoxymethyl)-5-(7-methoxy-5-methyl-1-benzothiophen-2-yl)pyrrolo[2,1-f]-[1,2,4]triazin-7-yl]methyl}piperazin-2-one]	8.7%	
COCc1c(-c2cc3cc(C)cc(OC)c3s2)c2c(N)ncnn2c1CN1CCNC(=O)C1.Cl.Cl [Example 2, 4-{[4-Amino-6-(methoxymethyl)-5-(7-methoxy-5-methyl-1-benzothiophen-2-yl)pyrrolo[2,1-f][1,2,4]triazin-7-yl]methyl}piperazin-2-one dihydrochloride]		7.2%
CCOCc1c(-c2cc3cc(C)cc(OC)c3s2)c2c(N)ncnn2c1CN1CCNC(=O)C1 [Example 5, 4-{[4-Amino-6-(ethoxymethyl)-5-(7-methoxy-5-methyl-1-benzothiophen-2-yl)pyrrolo[2,1-f][1,2,4]-triazin-7-yl]methyl}piperazin-2-one]	9.7%	
CCOCc1c(-c2cc3cc(C)cc(OC)c3s2)c2c(N)ncnn2c1CN1CCNC(=O)C1 [Example 6, 4-{[4-Amino-6-(ethoxymethyl)-5-(7-methoxy-5-methyl-1-benzothiophen-2-yl)pyrrolo[2,1-f][1,2,4]-triazin-7-yl]methyl}piperazin-2-one dihydrochloride]	0.3%	
CCOCc1c(-c2cc3cc(C)cc(OC)c3s2)c2c(N)ncnn2c1CN[C@@H]1CCNC1=O [Example 7, (3R)-3-({[4-Amino-6-(ethoxymethyl)-5-(7-methoxy-5-methyl-1-benzothiophen-2-yl)pyrrolo[2,1-f]-[1,2,4]triazin-7-yl]methyl}amino)pyrrolidin-2-one dihydrochloride]	3.1%	
CCOCc1c(-c2cc3cc(C)cc(OC)c3s2)c2c(N)ncnn2c1CN[C@@H]1CCNC1=O [Example 8, (3R)-3-({[4-Amino-6-(ethoxymethyl)-5-(7-methoxy-5-methyl-1-benzothiophen-2-yl)pyrrolo[2,1-f]-[1,2,4]triazin-7-yl]methyl}amino)pyrrolidin-2-one]	7.8%	
CCOCc1c(-c2cc3cc(C)cc(OC)c3s2)c2c(N)ncnn2c1CN1CCOCC1 [Example 10, 6-(Ethoxymethyl)-5-(7-methoxy-5-methyl-1-benzothiophen-2-yl)-7-(morpholin-4-ylmethyl)pyrrolo[2,1-f][1,2,4]triazin-4-amine]	6%	
COc1cc(C)cc2cc(-c3c(CO)c(CN4CCNCC4)n4ncnc(N)c34)sc12 [Example 12, [4-Amino-5-(7-methoxy-5-methyl-1-benzothiophen-2-yl)-7-(piperazin-1-ylmethyl)pyrrolo[2,1-f]-[1,2,4]triazin-6-yl]methanol bis(formiate)]	25.8%	
COCc1c(-c2cc3cc(C)cc(OC)c3s2)c2c(N)ncnn2c1CN1CCNCC1 [Example 17, 6-(Methoxymethyl)-5-(7-methoxy-5-methyl-1-benzothiophen-2-yl)-7-(piperazin-1-ylmethyl)pyrrolo[2,1-f][1,2,4]triazin-4-amine formiate]	6.7%	
CCOCc1c(-c2cc3cc(C)cc(OC)c3s2)c2c(N)ncnn2c1CN1CCNCC1 [Example 19, 6-(Ethoxymethyl)-5-(7-methoxy-5-methyl-1-benzothiophen-2-yl)-7-(piperazin-1-ylmethyl)pyrrolo[2,1-f][1,2,4]triazin-4-amine dihydrochloride]	17.6%	
CCOCc1c(-c2cc3cc(C)cc(OC)c3s2)c2c(N)ncnn2c1CN1CCN(C(C)=O)CC1 [Example 20, 1-(4-{[4-Amino-6-(ethoxymethyl)-5-(7-methoxy-5-methyl-1-benzothiophen-2-yl)pyrrolo[2,1-f]-[1,2,4]triazin-7-yl]methyl}piperazin-1-yl)ethanone]	31.3%	
CCCCOCc1c(-c2cc3cc(C)cc(OC)c3s2)c2c(N)ncnn2c1CN1CCNCC1 [Example 23, 6-(Butoxymethyl)-5-(7-methoxy-5-methyl-1-benzothiophen-2-yl)-7-(piperazin-1-ylmethyl)pyrrolo[2,1-f][1,2,4]triazin-4-amine formiate]	11.6%	
CCCOCc1c(-c2cc3cc(C)cc(OC)c3s2)c2c(N)ncnn2c1CN1CCNCC1 [Example 24, 5-(7-Methoxy-5-methyl-1-benzothiophen-2-yl)-7-(piperazin-1-ylmethyl)-6-(propoxymethyl)pyrrolo[2,1-f][1,2,4]triazin-4-amine bis(formiate)]	6.3%	
COc1cc(C)cc2cc(-c3c(COCC4CC4)c(CN4CCNCC4)n4ncnc(N)c34)sc12 [Example 25, 6-[(Cyclopropylmethoxy)methyl]-5-(7-methoxy-5-methyl-1-benzothiophen-2-yl)-7-(piperazin-1-ylmethyl)pyrrolo[2,1-f][1,2,4]triazin-4-amine bis(formiate)]	3.5%	
COc1cc(C)cc2cc(-c3c(COC(C)C)c(CN4CCNCC4)n4ncnc(N)c34)sc12 [Example 27, 6-(Isopropoxymethyl)-5-(7-methoxy-5-methyl-1-benzothiophen-2-yl)-7-(piperazin-1-ylmethyl)pyrrolo[2,1-f][1,2,4]triazin-4-amine formiate]	5.9%	
COc1cc(C)cc2cc(-c3c(COCC(F)(F)F)c(CN4CCNCC4)n4ncnc(N)c34)sc12 [Example 29, 5-(7-Methoxy-5-methyl-1-benzothiophen-2-yl)-7-(piperazin-1-ylmethyl)-6-[(2,2,2-trifluoroethoxy)methyl]pyrrolo[2,1-f][1,2,4]triazin-4-amine formiate]	28.5%	
COC(=O)COCc1c(-c2cc3cc(C)cc(OC)c3s2)c2c(N)ncnn2c1CN1CCNCC1 [Example 31, Methyl {[4-amino-5-(7-methoxy-5-methyl-1-benzothiophen-2-yl)-7-(piperazin-1-ylmethyl)pyrrolo[2,1-f][1,2,4]triazin-6-yl]methoxy}acetate]	16.3%	
COc1cc(C)cc2cc(-c3c(COCC(=O)O)c(CN4CCNCC4)n4ncnc(N)c34)sc12 [Example 32, {[4-Amino-5-(7-methoxy-5-methyl-1-benzothiophen-2-yl)-7-(piperazin-1-ylmethyl)pyrrolo[2,1-f][1,2,4]triazin-6-yl]methoxy}acetic acid]	1.6%	
COc1cc(C)cc2cc(-c3c(COCC(N)=O)c(CN4CCNCC4)n4ncnc(N)c34)sc12 [Example 33, 2-{[4-Amino-5-(7-methoxy-5-methyl-1-benzothiophen-2-yl)-7-(piperazin-1-ylmethyl)pyrrolo[2,1-f][1,2,4]triazin-6-yl]methoxy}acetamide]	0.9%	
COc1cc(C)cc2cc(-c3c(COc4ccccc4)c(CN4CCNCC4)n4ncnc(N)c34)sc12 [Example 35, 5-(7-Methoxy-5-methyl-1-benzothiophen-2-yl)-6-(phenoxymethyl)-7-(piperazin-1-ylmethyl)pyrrolo[2,1-f][1,2,4]triazin-4-amine bis(formiate)]	1.4%	
